In patent US20170049100A1 (priority 2014, published 2017):
Converted amounts (≈) assume the structure as drawn.

Test system: resistant strain of Pythium sp.
Experiment: In vitro sensitivity of a resistant strain of Pythium sp. (mycelium growth, optical density at 590 nm)
Format: cell-based
Settings: 168 h, 500 spores/mL, 7 days at 20° C., read-out: EC50 (effective concentration of the active ingredient which reduces the growth of the phytopathogen by 50%)

For `CCCCCCCCO` [octanol, octan-1-ol], the EC50 was 1.3 ng/mL (≈ 9.98 nM).
